# Experimental data taken from patent US11827628B2, “Compositions and methods for inhibition of the JAK pathway” (Rigel Pharmaceuticals, Inc., priority 2005, dated 2023).
# Where two headings read alike, the source gives them in different places.
# Key:
# [1] = test system: IL-4 stimulated expression of CD23 in human Ramos B cells (JAK-1 and JAK-3); test: Assay for Ramos B-Cell Line Stimulated with IL-4 (CD23 upregulation, FACS); type: cell-based; details: Ramos B-cell line stimulated with IL-4, CD23 expression by FACS, read-out: IC50, Example 41
# Outline: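 Log-phase Ramos cells, 1 h compound pre-incubation at 37 °C; IL-4 50 units/mL final, 20-24 h; CD23-PE stain, FACS; IC50.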
# Primary human T-cells = test: Primary Human T-Cell Proliferation Assay Stimulated with IL-2 (CellTiter-Glo); type: cell-based; details: primary human T-cell proliferation stimulated with IL-2, read-out: IC50, Example 42
# Description: The activity of the active compounds of the invention may further be characterized by assaying the effect of the 2,4-substituted pyrimidinediamine compounds described herein on the proliferative response of primary human T-cells. In this assay, primary human T-cells derived from peripheral blood and pre-activated through stimulation of the T-cell receptor and CD28, proliferate in culture in response to the cytokine Interleukin-2 (IL-2). This proliferative response is dependent on the activation of JAK1 and JAK3 tyrosine kinases, which phosphorylate and activate the transcription factor Stat-5. The primary human T-cells are incubated with the 2,4-substituted pyrimidinediamine compounds in the presence of IL-2 for 72 hours and at the assay endpoint intracellular ATP concentrations are measured to assess cell viability. A reduction in cell proliferation compared to control conditions is indicative of inhibition of the JAK kinase pathway. An exemplary assay of this type is described in greater detail in Example 42
# Primary human T-cells derived from peripheral blood and pre-activated through stimulation of the T-cell receptor and CD28, proliferate in vitro in response to the cytokine Interleukin-2 (IL-2). This proliferative response is dependent on the activation of JAK-1 and JAK-3 tyrosine kinases, which phosphorylate and activate the transcription factor Stat-5.
# Human primary T cells were prepared as follows. Whole blood was obtained from a healthy volunteer, mixed 1:1 with PBS, layered on to Ficoll Hypaque (Amersham Pharmacia Biotech, Piscataway, NJ, Catalog #17-1440-03) in 2:1 blood/PBS:ficoll ratio and centrifuged for 30 min at 4° C. at 1750 rpm. The lymphocytes at the serum: ficoll interface were recovered and washed twice with 5 volumes of PBS. The cells were resuspended in Yssel's medium (Gemini Bio-products, Woodland, CA, Catalog #400-103) containing 40 U/mL recombinant IL2 (R and D Systems, Minneapolis, MN, Catalog #202-IL (20 rig)) and seeded into a flask pre-coated with 1 μg/mL anti-CD3 (BD Pharmingen, San Diego, CA, Catalog #555336) and 5 μg/mL anti-CD28 (Immunotech, Beckman Coulter of Brea CA, Catalog #IM1376). The primary T-cells were stimulated for 3-4 days, then transferred to a fresh flask and maintained in RPMI with 10% FBS and 40 U/mL IL-2.
# Primary T-cells were washed twice with PBS to remove the IL-2 and resuspended in Yssel's medium at 2×10^6 cells/mL. 50 μL of cell suspension containing 80 U/mL IL-2 was added to each well of a flat bottom 96 well black plate. For the unstimulated control, IL-2 was omitted from the last column on the plate. Compounds were serially diluted in dimethyl sulfoxide (DMSO, 99.7% pure, cell culture tested, Sigma-Aldrich, St. Louis, MO, Catalog No. D2650) from 5 mM in 3-fold dilutions, and then diluted 1:250 in Yssel's medium. 50 μL of 2× compound was added per well in duplicate and the cells were allowed to proliferate for 72 hours at 37° C.
# Proliferation was measured using CellTiter-Glo® Luminescent Cell Viability Assay (Promega), which determines the number of viable cells in culture based on quantitation of the ATP present, as an indicator of metabolically active cells. The substrate was thawed and allowed to come to room temperature. After mixing the Cell Titer-Glo reagent and diluent together, 100 μL was added to each well. The plates were mixed on an orbital shaker for two minutes to induce lysis and incubated at room temperature for an additional ten minutes to allow the signal to equilibrate. Detection was performed using a Wallac Victor2 1420 multilabel counter purchased from Perkin Elmer, Shelton, CT The IC50 calculated based on the results of this assay are provided in TABLE XII.
Structure (SMILES),IC50 [1] [nM],IC50 (Primary human T-cells) [nM],"IC50 ([1]; Homo sapiens, Ramos) [nM]","IC50 (Primary human T-cells; Homo sapiens, T-cell) [nM]"
"Cc1cc(Nc2nc(Nc3ccc(S(N)(=O)=O)cc3)ncc2F)cc(C)c1OCC(N)=O [Compound I-114, N4-(4-Aminocarbonylmethoxy-3,5-dimethyl)phenyl-N2-(4-aminosulfonyl)phenyl-5-fluoro-2,4-pyrimidinediamine]",448,6710,,
"Cc1ccc(Nc2ncc(F)c(Nc3ccc(OCC(=O)N(C)C)cc3)n2)cc1S(N)(=O)=O [Compound I-130, N2-(3-Aminosulfonyl-4-methylphenyl)-N4-(4-dimethylaminocarbonylmethoxyphenyl)-5-fluoro-2,4-pyrimidinediamine]",,,601,1730
"Cc1ccc(Nc2ncc(F)c(Nc3ccc(OCC(=O)N(C)C)c(Cl)c3)n2)cc1S(N)(=O)=O [Compound I-133, N2-(3-Aminosulfonyl-4-methylphenyl)-N4-(3-chloro-4-dimethylaminocarbonylmethoxyphenyl)-5-fluoro-2,4-pyrimidinediamine]",,,237,1350
"Cc1cnc(Nc2ccc(Cl)c(S(N)(=O)=O)c2)nc1Nc1ccc(OCC(=O)N(C)C)c(F)c1 [Compound I-142, N2-(3-Aminosulfonyl-4-chlorophenyl)-N4-(4-dimethylaminocarbonylmethoxy-3-fluorophenyl)-5-methyl-2,4-pyrimidinediamine]",,,155,854
"CNC(=O)COc1ccc(Nc2nc(Nc3ccc(C)c(S(N)(=O)=O)c3)ncc2F)cc1 [Compound I-145, N2-(3-Aminosulfonyl-4-methylphenyl)-5-fluoro-N4-(4-methylaminocarbonylmethoxyphenyl)-2,4-pyrimidinediamine]",,,542,349
"CNC(=O)COc1ccc(Nc2nc(Nc3cccc(S(N)(=O)=O)c3)ncc2F)cc1Cl [Compound I-147, N2-(3-Aminosulfonylphenyl)-N4-(3-chloro-4-methylaminocarbonylmethoxyphenyl)-5-fluoro-2,4-pyrimidinediamine]",,,79.9,174
"CNC(=O)COc1ccc(Nc2nc(Nc3ccc(C)c(S(N)(=O)=O)c3)ncc2F)cc1Cl [Compound I-148, N2-(3-Aminosulfonyl-4-methylphenyl)-N4-(3-chloro-4-methylaminocarbonylmethoxyphenyl)-5-fluoro-2,4-pyrimidinediamine]",,,61.2,240
"CNC(=O)COc1ccc(Nc2nc(Nc3ccc(C)c(S(N)(=O)=O)c3)ncc2C)cc1Cl [Compound I-151, N2-(3-Aminosulfonyl-4-methylphenyl)-N4-(3-chloro-4-methylaminocarbonylmethoxyphenyl)-5-methyl-2,4-pyrimidinediamine]",,,61.9,78.3
"CNC(=O)COc1ccc(Nc2nc(Nc3ccc(Cl)c(S(N)(=O)=O)c3)ncc2F)cc1Cl [Compound I-152, N2-(3-Aminosulfonyl-4-chlorophenyl)-N4-(3-chloro-4-methylaminocarbonylmethoxyphenyl)-5-fluoro-2,4-pyrimidinediamine]",,,302,1540
"CNC(=O)COc1ccc(Nc2nc(Nc3ccc(Cl)c(S(N)(=O)=O)c3)ncc2C)cc1Cl [Compound I-153, N2-(3-Aminosulfonyl-4-chlorophenyl)-N4-(3-chloro-4-methylaminocarbonylmethoxyphenyl)-5-methyl-2,4-pyrimidinediamine]",,,114,334
"CNC(=O)COc1ccc(Nc2nc(Nc3ccc(S(N)(=O)=O)cc3)ncc2C)cc1F [Compound I-154, N2-(4-Aminosulfonylphenyl)-N4-(3-fluoro-4-methylaminocarbonylmethoxyphenyl)-5-methyl-2,4-pyrimidinediamine]",,,276,992
"C=CCNC(=O)COc1ccc(Nc2nc(Nc3ccc(S(N)(=O)=O)cc3)ncc2F)cc1 [Compound I-157, N4-(4-Allylaminocarbonylmethoxyphenyl)-N2-(4-aminosulfonylphenyl)-5-fluoro-2,4-pyrimidinediamine]",,,246,1890
"NS(=O)(=O)c1cccc(Nc2ncc(F)c(Nc3ccc(OCc4ccccn4)cc3)n2)c1 [Compound I-162, N2-(3-Aminosulfonylphenyl)-5-fluoro-N4-[4-(2-pyridinyl)methyleneoxyphenyl]-2,4-pyrimidinediamine]",51,136,,
"Cc1cc(Nc2nc(Nc3ccc(S(C)(=O)=O)c(N)c3)ncc2F)ccc1OCc1ccccn1 [Compound I-168, N2-(3-Amino-4-methylsulfonylphenyl)-5-fluoro-N4-[(4-((pyridin-2-yl)methoxy)-3-methylphenyl)]-2,4-pyrimidinediamine]",,,154,1180
"NS(=O)(=O)c1cccc(Nc2ncc(F)c(Nc3ccc(-c4ccccn4)c(OCF)c3)n2)c1 [Compound I-169, N2-(3-Aminosulfonylphenyl)-5-fluoro-N4-[4-(2-pyridinyl)-3-fluoromethyleneoxyphenyl]-2,4-pyrimidinediamine]",54.6,137,,
"NS(=O)(=O)c1cccc(Nc2ncc(F)c(Nc3ccc(OCc4ccccn4)c(Cl)c3)n2)c1 [Compound I-171, N2-(3-Aminosulfonylphenyl)-5-fluoro-N4-[4-(2-pyridinyl)-3-chloromethyleneoxyphenyl]-2,4-pyrimidinediamine]",117,415,,
"Cc1ccc(Nc2ncc(F)c(Nc3ccc(-c4ccccn4)c(OCCl)c3)n2)cc1S(N)(=O)=O [Compound I-174, N2-(3-Aminosulfonyl-4-methylphenyl)-5-fluoro-N4-[4-(2-pyridinyl)-3-chloromethyleneoxyphenyl]-2,4-pyrimidinediamine]",117,1230,,
"NS(=O)(=O)c1ccc(Nc2ncc(F)c(Nc3ccc(OCc4ccccn4)c(Cl)c3)n2)cc1 [Compound I-175, N2-(4-Aminosulfonylphenyl)-5-fluoro-N4-[4-(2-pyridinyl)-3-chloromethyleneoxyphenyl]-2,4-pyrimidinediamine]",147,3080,,
"Cc1cc(Nc2nc(Nc3ccc(S(N)(=O)=O)cc3)ncc2F)ccc1OCc1ccccn1 [Compound I-176, N2-(4-Aminosulfonylphenyl)-5-fluoro-N4-[4-(2-pyridinyl)-3-methylmethyleneoxyphenyl]-2,4-pyrimidinediamine]",259,1690,,
"NS(=O)(=O)c1cccc(Nc2ncc(F)c(Nc3cccc(OCc4cccnc4)c3)n2)c1 [Compound I-182, N2-(3-Aminosulfonylphenyl)-5-fluoro-N4-[3-(3-pyridinyl)methyleneoxyphenyl]-2,4-pyrimidinediamine]",190,1130,,
"NS(=O)(=O)c1cccc(Nc2ncc(F)c(Nc3ccc(OCc4ccncc4)cc3)n2)c1 [Compound I-193, N2-(3-Aminosulfonylphenyl)-5-fluoro-N4-[4-(4-pyridinyl)methyleneoxyphenyl]-2,4-pyrimidinediamine]",38.2,55.6,,
"CNS(=O)(=O)c1cc(Nc2ncc(F)c(Nc3ccc(OCc4ccncc4)cc3)n2)ccc1C [Compound I-195, 5-Fluoro-N2-[3-(N-methylaminosulfony)-4-methylphenyl]-5-fluoro-N4-[4-(4-pyridinyl)methyleneoxyphenyl]-2,4-pyrimidinediamine]",82.6,127,,
